Assays:
Assay in all cases: KINOMEscan competition binding
Settings in all cases: compound 1.0 µM
[1] = tested on: MET (human), P08581 [Y1235D]
[2] = target: CDKL5 (human) (UniProt O76039)
[3] = target: MAPK14 (human) (UniProt Q16539)
[4] = target: HIPK4 (human) (UniProt Q8NE63)
[5] = target: ADCK3 (human) (UniProt Q8NI60)
[6] = target: CHEK1 (human) (UniProt O14757)
[7] = target: TLK2 (human) (UniProt Q86UE8)
[8] = target: MATK (human) (UniProt P42679)
[9] = target: DMPK (human) (UniProt Q09013)
[10] = tested on: EGFR (human), P00533 [A750P; 747-749 del]
[11] = target: SIK1 (human) (UniProt P57059)
[12] = target: MARK4 (human) (UniProt Q96L34)
[13] = target: SRC (human) (UniProt P12931)
[14] = target: PRKD2 (human) (UniProt Q9BZL6)
[15] = target: CDK14 (human) (UniProt O94921)
Chain of CDK14 (human) (O94921 whole entry, looked up): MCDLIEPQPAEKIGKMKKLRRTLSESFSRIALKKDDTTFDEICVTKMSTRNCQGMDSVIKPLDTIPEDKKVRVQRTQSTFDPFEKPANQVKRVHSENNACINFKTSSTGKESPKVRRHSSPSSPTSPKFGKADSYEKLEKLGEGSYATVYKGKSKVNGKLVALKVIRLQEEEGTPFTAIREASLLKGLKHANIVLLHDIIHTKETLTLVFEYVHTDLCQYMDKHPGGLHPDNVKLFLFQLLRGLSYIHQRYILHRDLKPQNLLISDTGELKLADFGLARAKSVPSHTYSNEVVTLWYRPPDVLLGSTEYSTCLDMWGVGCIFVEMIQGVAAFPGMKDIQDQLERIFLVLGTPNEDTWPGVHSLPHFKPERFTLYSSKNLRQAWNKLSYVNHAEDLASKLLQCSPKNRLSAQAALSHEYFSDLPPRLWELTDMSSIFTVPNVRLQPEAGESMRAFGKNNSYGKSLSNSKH

[16] = target: ACVR1B (human) (UniProt P36896)
[17] = target: CDK16 (human) (UniProt Q00536)
[18] = target: PRKG2 (human) (UniProt Q13237)
[19] = tested on: EGFR (human), P00533 [L861Q]
[20] = target: RIPK4 (human) (UniProt P57078)
[21] = target: RIOK2 (human) (UniProt Q9BVS4)
[22] = target: DCLK3 (human) (UniProt Q9C098)
[23] = target: CDK15 (human) (UniProt Q96Q40)
[24] = target: NTRK2 (human) (UniProt Q16620)
[25] = target: AURKA (human) (UniProt O14965)
Chain of AURKA (human) (O14965 whole entry, looked up): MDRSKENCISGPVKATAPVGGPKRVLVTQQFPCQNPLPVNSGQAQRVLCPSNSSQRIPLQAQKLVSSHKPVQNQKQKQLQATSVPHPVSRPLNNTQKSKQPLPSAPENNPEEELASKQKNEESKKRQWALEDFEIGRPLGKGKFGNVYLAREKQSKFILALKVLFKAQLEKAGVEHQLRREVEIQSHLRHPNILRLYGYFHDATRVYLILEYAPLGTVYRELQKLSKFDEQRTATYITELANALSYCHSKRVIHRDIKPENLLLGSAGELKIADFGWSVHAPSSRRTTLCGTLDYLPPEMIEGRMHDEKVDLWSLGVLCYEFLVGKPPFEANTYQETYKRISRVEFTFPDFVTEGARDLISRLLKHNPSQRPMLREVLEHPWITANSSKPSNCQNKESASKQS

[26] = target: SRPK1 (human) (UniProt Q96SB4)
[27] = target: PAK6 (human) (UniProt Q9NQU5)
[28] = target: ALK (human) (UniProt Q9UM73)
[29] = target: EPHB6 (human) (UniProt O15197)
Chain of EPHB6 (human) (O15197 whole entry, looked up): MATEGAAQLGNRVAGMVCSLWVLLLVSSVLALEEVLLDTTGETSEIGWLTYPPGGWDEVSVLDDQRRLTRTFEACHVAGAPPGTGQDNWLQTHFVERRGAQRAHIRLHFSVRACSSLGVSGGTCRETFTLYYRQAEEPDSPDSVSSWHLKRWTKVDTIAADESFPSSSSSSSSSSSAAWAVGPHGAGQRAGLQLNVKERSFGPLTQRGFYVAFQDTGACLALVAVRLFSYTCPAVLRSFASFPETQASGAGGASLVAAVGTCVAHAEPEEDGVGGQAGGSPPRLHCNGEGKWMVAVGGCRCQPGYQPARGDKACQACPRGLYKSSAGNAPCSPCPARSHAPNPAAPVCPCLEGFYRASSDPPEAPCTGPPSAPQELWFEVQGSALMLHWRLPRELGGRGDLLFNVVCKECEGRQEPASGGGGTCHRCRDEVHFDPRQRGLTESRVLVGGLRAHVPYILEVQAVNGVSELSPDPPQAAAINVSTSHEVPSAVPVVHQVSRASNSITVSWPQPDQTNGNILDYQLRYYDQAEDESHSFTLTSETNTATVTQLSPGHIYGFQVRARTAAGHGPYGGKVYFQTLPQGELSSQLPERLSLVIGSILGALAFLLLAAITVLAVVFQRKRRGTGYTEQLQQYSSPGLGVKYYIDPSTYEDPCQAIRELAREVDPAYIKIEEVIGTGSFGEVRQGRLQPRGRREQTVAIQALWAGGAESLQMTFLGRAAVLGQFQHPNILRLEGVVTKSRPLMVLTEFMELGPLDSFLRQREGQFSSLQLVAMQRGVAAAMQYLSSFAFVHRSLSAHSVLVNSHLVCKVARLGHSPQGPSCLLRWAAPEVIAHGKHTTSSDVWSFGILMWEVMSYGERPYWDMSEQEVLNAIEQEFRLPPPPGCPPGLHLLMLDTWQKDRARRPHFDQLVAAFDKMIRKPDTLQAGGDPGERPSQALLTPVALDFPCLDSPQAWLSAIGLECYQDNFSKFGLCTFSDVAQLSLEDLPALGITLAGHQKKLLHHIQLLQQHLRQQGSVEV

[30] = target: NEK2 (human) (UniProt P51955)
[31] = target: CDK11B (human) (UniProt P21127)
Chain of CDK11B (human) (P21127 whole entry, looked up): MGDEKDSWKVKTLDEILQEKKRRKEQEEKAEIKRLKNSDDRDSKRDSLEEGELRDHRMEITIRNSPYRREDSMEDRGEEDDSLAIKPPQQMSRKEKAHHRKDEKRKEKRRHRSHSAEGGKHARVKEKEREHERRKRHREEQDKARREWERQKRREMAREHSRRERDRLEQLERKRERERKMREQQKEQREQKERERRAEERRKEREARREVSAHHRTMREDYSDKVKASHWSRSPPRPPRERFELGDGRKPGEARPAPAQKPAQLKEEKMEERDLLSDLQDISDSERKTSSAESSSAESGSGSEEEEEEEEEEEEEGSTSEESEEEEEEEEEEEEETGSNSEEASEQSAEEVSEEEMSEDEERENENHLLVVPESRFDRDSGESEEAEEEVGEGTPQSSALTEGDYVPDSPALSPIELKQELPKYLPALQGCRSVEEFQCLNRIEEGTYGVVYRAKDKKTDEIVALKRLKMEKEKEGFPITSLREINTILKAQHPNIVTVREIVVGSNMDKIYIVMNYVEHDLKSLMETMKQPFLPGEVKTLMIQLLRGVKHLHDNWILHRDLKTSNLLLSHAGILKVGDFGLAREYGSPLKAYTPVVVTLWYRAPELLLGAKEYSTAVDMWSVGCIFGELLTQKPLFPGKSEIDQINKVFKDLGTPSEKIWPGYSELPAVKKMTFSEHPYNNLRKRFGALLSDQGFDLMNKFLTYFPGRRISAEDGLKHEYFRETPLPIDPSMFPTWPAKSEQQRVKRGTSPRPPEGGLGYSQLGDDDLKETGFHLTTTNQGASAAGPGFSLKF

[32] = target: STK38L (human) (UniProt Q9Y2H1)
Chain of STK38L (human) (Q9Y2H1 whole entry, looked up): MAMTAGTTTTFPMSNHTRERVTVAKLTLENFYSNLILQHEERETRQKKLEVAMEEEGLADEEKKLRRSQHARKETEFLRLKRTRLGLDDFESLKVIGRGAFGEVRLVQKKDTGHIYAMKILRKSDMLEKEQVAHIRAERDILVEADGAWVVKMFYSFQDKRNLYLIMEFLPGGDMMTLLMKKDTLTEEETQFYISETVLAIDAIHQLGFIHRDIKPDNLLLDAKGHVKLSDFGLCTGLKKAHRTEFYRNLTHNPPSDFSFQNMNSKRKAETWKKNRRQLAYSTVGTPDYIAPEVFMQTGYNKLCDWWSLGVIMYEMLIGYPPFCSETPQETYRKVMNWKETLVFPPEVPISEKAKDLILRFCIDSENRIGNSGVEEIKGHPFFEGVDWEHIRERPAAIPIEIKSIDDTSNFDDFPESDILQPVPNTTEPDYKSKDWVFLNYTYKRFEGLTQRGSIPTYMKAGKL

[33] = target: MAP3K9 (human) (UniProt P80192)
[34] = tested on: KIT (human), P10721 [L576P]
Chain of KIT (human), P10721 [L576P] (P10721 whole entry L576P, looked up): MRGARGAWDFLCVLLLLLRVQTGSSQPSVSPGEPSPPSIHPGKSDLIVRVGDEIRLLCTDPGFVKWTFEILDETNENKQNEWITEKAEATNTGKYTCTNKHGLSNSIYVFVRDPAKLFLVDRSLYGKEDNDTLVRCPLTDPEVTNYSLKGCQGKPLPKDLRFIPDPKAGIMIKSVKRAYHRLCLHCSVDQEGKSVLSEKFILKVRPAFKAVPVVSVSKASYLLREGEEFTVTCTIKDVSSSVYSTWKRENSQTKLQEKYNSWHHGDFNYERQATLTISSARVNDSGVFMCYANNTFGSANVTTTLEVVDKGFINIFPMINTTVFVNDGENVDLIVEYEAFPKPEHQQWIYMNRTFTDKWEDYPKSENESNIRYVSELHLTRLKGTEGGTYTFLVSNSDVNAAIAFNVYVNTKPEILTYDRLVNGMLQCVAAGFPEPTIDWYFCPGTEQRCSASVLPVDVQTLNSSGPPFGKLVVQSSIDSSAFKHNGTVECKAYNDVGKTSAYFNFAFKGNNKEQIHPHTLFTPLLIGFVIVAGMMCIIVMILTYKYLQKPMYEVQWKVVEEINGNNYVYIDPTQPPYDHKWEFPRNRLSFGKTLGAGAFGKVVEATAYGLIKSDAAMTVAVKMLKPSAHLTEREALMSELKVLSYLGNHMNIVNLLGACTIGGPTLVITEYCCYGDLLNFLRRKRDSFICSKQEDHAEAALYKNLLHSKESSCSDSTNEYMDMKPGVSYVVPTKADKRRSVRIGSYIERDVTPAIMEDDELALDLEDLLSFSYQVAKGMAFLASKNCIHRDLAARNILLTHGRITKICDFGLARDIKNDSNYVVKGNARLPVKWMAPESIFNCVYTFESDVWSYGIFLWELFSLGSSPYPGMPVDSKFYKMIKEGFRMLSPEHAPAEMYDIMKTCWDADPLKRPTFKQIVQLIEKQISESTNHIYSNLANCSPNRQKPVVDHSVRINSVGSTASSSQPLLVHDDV

[35] = target: STK33 (human) (UniProt Q9BYT3)
[36] = target: GRK4 (human) (UniProt P32298)
[37] = target: MAPK11 (human) (UniProt Q15759)
[38] = target: MKNK1 (human) (UniProt Q9BUB5)
[39] = target: PIM1 (human) (UniProt P11309)
Chain of PIM1 (human) (P11309 whole entry, looked up): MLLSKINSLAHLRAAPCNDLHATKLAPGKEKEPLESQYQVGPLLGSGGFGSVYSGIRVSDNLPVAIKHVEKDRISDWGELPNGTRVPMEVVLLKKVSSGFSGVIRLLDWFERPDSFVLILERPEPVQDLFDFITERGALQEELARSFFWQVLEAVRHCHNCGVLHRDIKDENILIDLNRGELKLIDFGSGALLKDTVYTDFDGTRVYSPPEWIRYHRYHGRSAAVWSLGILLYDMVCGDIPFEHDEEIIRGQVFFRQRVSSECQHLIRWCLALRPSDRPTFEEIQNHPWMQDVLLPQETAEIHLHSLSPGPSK

[40] = target: ACVR1 (human) (UniProt Q04771)
Chain of ACVR1 (human) (Q04771 whole entry, looked up): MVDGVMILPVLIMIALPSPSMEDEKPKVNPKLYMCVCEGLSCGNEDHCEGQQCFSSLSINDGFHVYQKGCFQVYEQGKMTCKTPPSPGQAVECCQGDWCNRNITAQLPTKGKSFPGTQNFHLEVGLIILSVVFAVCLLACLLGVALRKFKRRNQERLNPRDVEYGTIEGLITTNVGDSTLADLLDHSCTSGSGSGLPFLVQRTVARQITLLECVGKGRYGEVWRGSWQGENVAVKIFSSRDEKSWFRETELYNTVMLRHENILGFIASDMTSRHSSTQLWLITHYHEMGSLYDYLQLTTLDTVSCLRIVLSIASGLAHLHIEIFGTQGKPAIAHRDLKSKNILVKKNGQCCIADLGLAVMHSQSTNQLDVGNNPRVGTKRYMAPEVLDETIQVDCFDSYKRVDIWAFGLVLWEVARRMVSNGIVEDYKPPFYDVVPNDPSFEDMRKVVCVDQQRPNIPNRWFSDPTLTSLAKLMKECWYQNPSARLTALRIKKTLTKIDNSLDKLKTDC

inhibition of binding [1]: 0% | inhibition of binding [2]: 50% | inhibition of binding [3]: 0% | inhibition of binding [4]: 21% | inhibition of binding [5]: 4% | inhibition of binding [6]: 1% | inhibition of binding [7]: 13% | inhibition of binding [8]: 28% | inhibition of binding [9]: 0% | inhibition of binding [10]: 0% | inhibition of binding [11]: 0% | inhibition of binding [12]: 0% | inhibition of binding [13]: 6% | inhibition of binding [14]: 38% | inhibition of binding [15]: 27% | inhibition of binding [16]: 3% | inhibition of binding [17]: 0% | inhibition of binding [18]: 0% | inhibition of binding [19]: 0% | inhibition of binding [20]: 0% | inhibition of binding [21]: 0% | inhibition of binding [22]: 51% | inhibition of binding [23]: 0% | inhibition of binding [24]: 0% | inhibition of binding [25]: 0% | inhibition of binding [26]: 0% | inhibition of binding [27]: 16% | inhibition of binding [28]: 6% | inhibition of binding [29]: 3% | inhibition of binding [30]: 0% | inhibition of binding [31]: 10% | inhibition of binding [32]: 3% | inhibition of binding [33]: 18% | inhibition of binding [34]: 0% | inhibition of binding [35]: 0% | inhibition of binding [36]: 0% | inhibition of binding [37]: 0% | inhibition of binding [38]: 0% | inhibition of binding [39]: 2% | inhibition of binding [40]: 0%
SMILES: Nc1cc(C(F)(F)F)c(-c2cc(N3CCOCC3)nc(N3CCOCC3)n2)cn1
